Read-outs that look alike come from different tables or passages of the source. Values belong to the molecule of their own block, whether it stands above or below them.
Key:
P388/MTX = experiment: Survival of P388/MTX (MTX-resistant P388) bearing mice, in vivo; set-up: species or system murine; conditions: ip; for survival time: control 17.2 days; for % T/C: survival time
Source text: (§1) Comparison of the Response of Murine P388/0
(§2) ^a Implant: ip, 10^6 cells; method described by Geran et al,
(§3) Cancer Chemother. Rep. Part 3, Vol. 3 (2) (1972).

L1210 cells [1] = experiment: Rate of net polyglutamate formation in L1210 cells; assay type: cell-based; conditions: for order of initial rates of polyglutamate accumulation: comparable rates of drug entry; for Rate of net polyglutamate formation: conditions of comparable rates of drug entry
L1210 cells [2] = experiment: L1210 cell growth inhibition in culture; assay type: cell-based; conditions: for IC50: Mus musculus; for potency in the L1210 cell growth inhibition test relative to 5-deazamethotrexate: compared with 5-deazamethotrexate; for potency in the L1210 cell growth inhibition test relative to MTX: compared with MTX
Source text: (§4) (a) Methods are described by Sirotnak et al, "Molecular Actions and
(§5) Targets for Cancer Chemotherapy Agents", Sartorelli, A.C. Ed., Academic
(§6) Press., New York, pps. 349-383 (1981); Sirotnak et al, Biochem.
(§7) Pharmacol., Vol. 29, p. 3293 (1980); and Sirotnak et al, Cancer Res., Vol

L1210 cells [3] = experiment: Mediated transport (influx, efflux) in L1210 cells; assay type: cell-based; conditions: n = 3-4, SE; for Km: influx
Source text: as §4, §5, §6, §7

P388/0 = experiment: Survival of P388/0 bearing mice, in vivo; set-up: species or system murine; conditions: for survival time: P388/0, ip, control 10.8 days; for % T/C: P388/0, survival time, ip
Source text: as §1, §2, §3

[4] = tested on: EO771 mammary adenocarcinoma; experiment: Antitumor effects against the EO771 mammary adenocarcinoma in mice; assay type: in vivo; conditions: once per day for five days; for T/C (tumor volume treated/control) / tumor free total / AWC (average weight change): day 7; for toxic deaths total: day 7, 14 or 21; for ave. tumor vol.: day 7, ± SE, control 225 ± 60; for tumor free total: control 0/14
Source text: 5-Methyl-5-Deazamethotrexate (20) Against the EO771
Mammary Adenocarcinoma. Average of Two Separate
Experiments (5 Mice/Group) ± SE of the Mean.
^1 given once per day for five days starting one day after tumor
^2 average weight change on day 7 (one day after cessation of therapy
^3 assessed on day 7, 14 or 21
^4 assessed on day 7 (4/3 πr^3) T/C = treated/control
^5 assessed on day 7 (one day after cessation of therapy)

[5] = read-out: Cell Growth inhibn IC50 (n = 4) ± SE, L1210 cells, n = 4, ± SE
[6] = qd 1-5, optimal dose 0.25 mg/kg

IC50 (L1210 cells [2]; [5]): 2.85 ± 0.3 nM
SMILES: CN(Cc1cnc2nc(N)nc(N)c2c1)c1ccc(C(=O)N[C@@H](CCC(=O)O)C(=O)O)cc1 [Compound 5-dMTX, 5-deazamethotrexate, reference compound]
survival time (P388/MTX; qd 1-5, optimal dose 4 mg/kg): 20.3 days
% T/C (P388/MTX; qd 1-5, optimal dose 4 mg/kg): 118%
order of initial rates of polyglutamate accumulation (L1210 cells [1]): AMT>5-Me-5-dAMT>5-dAMT>MTX>5-dMTX>5-Me5-dMTX
Rate of net polyglutamate formation (L1210 cells [1]): 48.8 pM/min/g dry wt
Mediated Transport efflux k + SE (L1210 cells [3]): 0.28 ± 0.04 min⁻¹
Km (L1210 cells [3]): 4 ± 0.5 µM
survival time (P388/0; qd 1-5, optimal dose 4 mg/kg): 18.0 days
% T/C (P388/0; qd 1-5, optimal dose 4 mg/kg): 166%

SMILES: CCOC(=O)CC[C@H](NC(=O)c1ccc(NCc2cnc3nc(N)nc(N)c3c2)cc1)C(=O)OCC [Compound 9, N-[4-[[(2,4-Diaminopyrido[2,3-d]pyrimidin-6-yl)methyl]-amino]benzoyl]-L-glutamic Acid Diethyl Ester]
survival time (P388/MTX; qd 1-5, optimal dose 1 mg/kg): 20.8 days
% T/C (P388/MTX; qd 1-5, optimal dose 1 mg/kg): 120%
survival time (P388/0; qd 1-5, optimal dose 1 mg/kg): 16.2 days
% T/C (P388/0; qd 1-5, optimal dose 1 mg/kg): 151%

SMILES: Nc1nc(N)c2cc(CNc3ccc(C(=O)N[C@@H](CCC(=O)O)C(=O)O)cc3)cnc2n1 [Compound 11]
survival time (P388/MTX; qd 1-5, optimal dose 2 mg/kg): 21.8 days
% T/C (P388/MTX; qd 1-5, optimal dose 2 mg/kg): 126%
order of initial rates of polyglutamate accumulation (L1210 cells [1]): AMT>5-Me-5-dAMT>5-dAMT>MTX>5-dMTX>5-Me5-dMTX
Rate of net polyglutamate formation (L1210 cells [1]): 84.2 pM/min/g dry wt
IC50 (L1210 cells [2]; [5]): 0.63 ± 0.07 nM
Mediated Transport efflux k + SE (L1210 cells [3]): 0.30 ± 0.04 min⁻¹
Km (L1210 cells [3]): 1.1 ± 0.2 µM
survival time (P388/0; qd 1-5, optimal dose 0.5 mg/kg): 15.8 days
% T/C (P388/0; qd 1-5, optimal dose 0.5 mg/kg): 146%

SMILES: Cc1c(CNc2ccc(C(=O)N[C@@H](CCC(=O)O)C(=O)O)cc2)cnc2nc(N)nc(N)c12 [Compound 12]
survival time (P388/MTX; qd 1-5, optimal dose 0.5 mg/kg): 20.8 days
% T/C (P388/MTX; qd 1-5, optimal dose 0.5 mg/kg): 120%
order of initial rates of polyglutamate accumulation (L1210 cells [1]): AMT>5-Me-5-dAMT>5-dAMT>MTX>5-dMTX>5-Me5-dMTX
Rate of net polyglutamate formation (L1210 cells [1]): 98.3 pM/min/g dry wt
IC50 (L1210 cells [2]; L1210, read-out: Cell Growth inhibn IC50 (n = 4) ± SE): 1.29 ± 0.2 nM
Mediated Transport efflux k + SE (L1210 cells [3]): 0.26 ± 0.05 min⁻¹
Km (L1210 cells [3]): 1.2 ± 0.2 µM
survival time (P388/0; qd 1-5, optimal dose 0.5 mg/kg): 16.4 days
% T/C (P388/0; qd 1-5, optimal dose 0.5 mg/kg): 151%

SMILES: Cc1c(CN(C)c2ccc(C(=O)N[C@@H](CCC(=O)O)C(=O)O)cc2)cnc2nc(N)nc(N)c12 [Compound 20, N-[4-[[2,4-Diamino-5-methylpyrido[2,3-d]pyrimidin-6-yl)methyl]methylamino]benzoyl-L-glutamic Acid]
survival time (P388/MTX; [6]): 20.8 days
% T/C (P388/MTX; [6]): 120%
order of initial rates of polyglutamate accumulation (L1210 cells [1]): AMT>5-Me-5-dAMT>5-dAMT>MTX>5-dMTX>5-Me5-dMTX
Rate of net polyglutamate formation (L1210 cells [1]): 42.9 pM/min/g dry wt
T/C (tumor volume treated/control) ([4]; 0.375 mg/kg): 0.25
toxic deaths total ([4]; 0.375 mg/kg): 0/10
ave. tumor vol. ([4]; 0.375 mg/kg): 50 ± 16 mm^3
tumor free total ([4]; 0.375 mg/kg): 0/10
T/C (tumor volume treated/control) ([4]; 0.75 mg/kg): 0.13
toxic deaths total ([4]; 0.75 mg/kg): 0/10
ave. tumor vol. ([4]; 0.75 mg/kg): 35 ± 10 mm^3
tumor free total ([4]; 0.75 mg/kg): 1/10
T/C (tumor volume treated/control) ([4]; 1.5 mg/kg): 0.03
toxic deaths total ([4]; 1.5 mg/kg): 0/10
ave. tumor vol. ([4]; 1.5 mg/kg): 4 ± 2 mm^3
tumor free total ([4]; 1.5 mg/kg): 6/10
T/C (tumor volume treated/control) ([4]; 3.0 mg/kg): 0.02
toxic deaths total ([4]; 3.0 mg/kg): 5/6
ave. tumor vol. ([4]; 3.0 mg/kg): 3 ± 1 mm^3
tumor free total ([4]; 3.0 mg/kg): toxic
IC50 (L1210 cells [2]; [5]): 0.24 ± 0.03 nM
potency in the L1210 cell growth inhibition test relative to 5-deazamethotrexate (L1210 cells [2]): more than 10 times
potency in the L1210 cell growth inhibition test relative to MTX (L1210 cells [2]): 10 times
Mediated Transport efflux k + SE (L1210 cells [3]): 0.31 ± 0.05 min⁻¹
Km (L1210 cells [3]): 3.2 ± 0.4 µM
survival time (P388/0; qd 1-5, optimal dose 1 mg/kg): 19.7 days
% T/C (P388/0; qd 1-5, optimal dose 1 mg/kg): 182%

IC50 (L1210 cells [2]; [5]): 0.26 ± 0.02 nM
SMILES: CCN(Cc1cnc2nc(N)nc(N)c2c1C)c1ccc(C(=O)N[C@@H](CCC(=O)O)C(=O)O)cc1 [Compound 21]
potency in the L1210 cell growth inhibition test relative to 5-deazamethotrexate (L1210 cells [2]): more than 10 times
potency in the L1210 cell growth inhibition test relative to MTX (L1210 cells [2]): 10 times
Mediated Transport efflux k + SE (L1210 cells [3]): 0.29 ± 0.04 min⁻¹
Km (L1210 cells [3]): 3.3 ± 0.5 µM

SMILES: CN(Cc1cnc2nc(N)nc(N)c2n1)c1ccc(C(=O)N[C@@H](CCC(=O)O)C(=O)O)cc1 [MTX, Methotrexate, reference compound]
survival time (P388/MTX; qd 1-5, optimal dose 3.5 mg/kg): 20.3 days
% T/C (P388/MTX; qd 1-5, optimal dose 3.5 mg/kg): 118%
order of initial rates of polyglutamate accumulation (L1210 cells [1]): AMT>5-Me-5-dAMT>5-dAMT>MTX>5-dMTX>5-Me5-dMTX
AWC (average weight change) ([4]; 1.5 mg/kg): +0.9 g
T/C (tumor volume treated/control) ([4]; 1.5 mg/kg): 0.60
toxic deaths total ([4]; 1.5 mg/kg): 0/10
ave. tumor vol. ([4]; 1.5 mg/kg): 102 ± 32 mm^3
tumor free total ([4]; 1.5 mg/kg): 1/10
AWC (average weight change) ([4]; 3.0 mg/kg): -0.2 g
T/C (tumor volume treated/control) ([4]; 3.0 mg/kg): 0.61
toxic deaths total ([4]; 3.0 mg/kg): 0/10
ave. tumor vol. ([4]; 3.0 mg/kg): 108 ± 24 mm^3
tumor free total ([4]; 3.0 mg/kg): 1/10
AWC (average weight change) ([4]; 6.0 mg/kg): -2.1 g
T/C (tumor volume treated/control) ([4]; 6.0 mg/kg): 0.12
toxic deaths total ([4]; 6.0 mg/kg): 4/10
ave. tumor vol. ([4]; 6.0 mg/kg): 22 ± 5 mm^3
tumor free total ([4]; 6.0 mg/kg): toxic
Mediated Transport efflux k + SE (L1210 cells [3]): 0.33 ± 0.06 min⁻¹
Km (L1210 cells [3]): 3.3 ± 0.7 µM
survival time (P388/0; qd 1-5, optimal dose 4 mg/kg): 19.7 days
% T/C (P388/0; qd 1-5, optimal dose 4 mg/kg): 182%

Source: patent US4725687A (priority 1986, dated 1988)
